This is an account of results in patent publication US20060234934A1, “Composition and Method for Selective Cytostasis” (priority 2005, published 2006).

The test system of test [1] is ALL line MOLT-4 (CRL1582). The experiment in a line: 3[H]thymidine uptake in leukemic cell line MOLT-4. It is filed as cell-based, human. The conditions noted are these: 50 nG/mL. How it is done:
For example, the ALL line MOLT-4 (now denoted CRL1582 by the ATCC) was used for testing a representative cytostatic peptide for its effect on leukemic cells. The testing method described by Kikuwa, et al (1986), which is hereby incorporated herein by reference. In brief, the cells were maintained as a suspension in RPMI 1640 (Gibco) and 10% FCS, 100 u. penicillin G/mL and 100 micrograms streptomycin/mL with 2 mM L-glutamine.
Representative non-toxic cytostatic peptides were tested in still other cancer cell lines.

Test [2] concerns Malignant melanoma A375 cells. The experiment in a line: 3[H]-thymidine incorporation in A375 cell cultures. It counts as cell-based. How it is done: Each fraction was reconstituted in 110 μl of Dulbecco's modified Eagle's medium (DMEM) with fetal calf serum (FCS) 5 vol. %, 100 I.U. penicillin, 100 μg streptomycin and 2 nmole glutamine.
Malignant melanoma A375 cells (obtained from the American Type Culture Collection, Rockville, Md.) were counted in a counter (obtained from Coulter Diagnostics, Hialeah, Fla.), and about 4,000 cells were seeded into each well of a 96 well microtiter plate (obtained from Fisher Scientific, Springfield, N.J.) with 200 I.U. penicillin, 200 µg streptomycin and DMEM containing FCS 5 vol. %, 2 nmole glutamine, and […] HEPES (hydroxyethylpiperazine-ethanesulfonic acid buffer) as needed to give a final well volume of […]. […]
The cell cultures were terminated and harvested with a cell harvester (obtained from Flow Laboratories, McLean, Va., under the designation Titertek®), removing the contents of each microtiter plate well onto glass fiber filter paper. […] The strips were placed in scintillation vials and counted in 2 ml scintillation solution (obtained from Fisher Scientific, Springfield, N.J., under the designation Scintiverse®) using a scintillation counter (Model No. LS 100 C. obtained from Beckman Instruments, Somerset, N.J.) to determine the uptake of ^3[H]-thymidine into newly synthesized DNA.

In the case of “serine-glutamine-cysteine-glutamic acid-glutamine-glutamic acid-glycine-glycine-phenalalanine-cysteine-arginine-phenylalanine-leucine-leucine-cysteine-proline-serine-arginine-threonine-serine-aspartic acid-isoleucine-glysine-lysine-leucine-glycine-cysteine-glutamic acid-proline-leucine-tryptophan-lysine-cysteine-cysteine-lysine-arginine-tryptophan-glycine-glycine [peak Q]”, in test [1], the “less 3[H]thymidine uptake than controls” value is 90-95% and the “visual appearance of cells” value was “altered “rounded” visual appearance”. Also, in test [2] (HPLC fraction), the “less 3[H]-thymidine uptake than controls” value is “about 50%”. Moreover, the “amount sufficient to arrest the proliferations of at least about 100,000 melanoma cells” value in test [2] (melanoma cells) is “about 50 ng”.
